Test results from patent US11254663B2 (BRISTOL-MYERS SQUIBB COMPANY, priority 2019, dated 2022).

The compounds below were run against FXR (Homo sapiens (Human), UniProt Q96RI1) (assay: FXR EC50 (FXR agonist potency reported with each Example)).
Type: cell-based

FXR, sequence (Q96RI1 262-486): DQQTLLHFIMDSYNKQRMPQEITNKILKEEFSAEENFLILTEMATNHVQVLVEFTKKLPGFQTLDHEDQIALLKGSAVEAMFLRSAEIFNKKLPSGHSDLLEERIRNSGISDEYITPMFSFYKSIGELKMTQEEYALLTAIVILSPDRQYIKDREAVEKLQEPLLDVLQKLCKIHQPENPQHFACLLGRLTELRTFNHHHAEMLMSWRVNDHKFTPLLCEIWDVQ

**Q.** For `N#CC1(c2ccc(C34CCC(CN(C(=O)C5CC(F)(F)C5)c5cccc(-c6nc(C7CC7)no6)c5)(CC3)CO4)cc2)CC1` [Example 142, N-((1-(4-(1-cyanocyclopropyl)phenyl)-2-oxabicyclo[2.2.2]octan-4-yl)methyl)-N-(3-(3-cyclopropyl-1,2,4-oxadiazol-5-yl)phenyl)-3,3-difluorocyclobutuane-1-carboxamide], which EC50 is on record?
**A.** 0.583 µM

**Q.** Which EC50 does the source give for `CC(C)(C)c1nc(C23CCC(CN(C(=O)C45CC(F)(C4)C5)c4cc(-c5cnn(C(F)F)c5)ccn4)(CC2)CC3)no1` [Example 212, N-((4-(5-(tert-butyl)-1,2,4-oxadiazol-3-yl)bicyclo[2.2.2]octan-1-yl)methyl)-N-(4-(1-(difluoromethyl)-1H-pyrazol-4-yl)pyridin-2-yl)-3-fluorobicyclo[1.1.1]pentane-1-carboxamide] here?
**A.** 0.011 µM

**Q.** `CCCc1ncc(-c2cccc(N(CC34CCC(c5nc(C6CC6)no5)(CC3)CC4)C(=O)C3CC(F)(F)C3)c2)o1` [Example 27, N-((4-(3-cyclopropyl-1,2,4-oxadiazol-5-yl)bicyclo[2.2.2]octan-1-yl)methyl)-3,3-difluoro-N-(3-(2-propyloxazol-5-yl)phenyl)cyclobutane-1-carboxamide] was tested. Which EC50 did it give?
**A.** 0.148 µM

**Q.** Which EC50 does the source give for `O=C(N(CC12CCC(c3nc(C4CC4)no3)(CC1)CC2)c1cccc(-c2cc(C3CC3)on2)c1)C12CC(F)(C1)C2` [Example 57, N-((4-(3-cyclopropyl-1,2,4-oxadiazol-5-yl)bicyclo[2.2.2]octan-1-yl)methyl)-N-(3-(5-cyclopropylisoxazol-3-yl)phenyl)-3-fluorobicyclo[1.1.1]pentane-1-carboxamide] here?
**A.** 0.0198 µM

**Q.** Which EC50 does the source give for `CC(C)(C)c1nc(C23CCC(CN(C(=O)C45CC(F)(C4)C5)c4cccc(-c5cnn(S(=O)(=O)C6CC6)c5)c4)(CC2)CC3)no1` [Example 195, N-((4-(5-(tert-butyl)-1,2,4-oxadiazol-3-yl)bicyclo[2.2.2]octan-1-yl)methyl)-N-(3-(1-(cyclopropylsulfonyl)-1H-pyrazol-4-yl)phenyl)-3-fluorobicyclo[1.1.1]pentane-1-carboxamide] here?
**A.** 0.02 µM

**Q.** Which EC50 does the source give for `O=C(C1CC(C(F)F)C1)N(CC12CCC(c3nc(C4CC4)no3)(CC1)CC2)c1cccc(-c2nc(C(F)F)co2)c1` (centres unmarked) [Example 43, N-((4-(3-cyclopropyl-1,2,4-oxadiazol-5-yl)bicyclo[2.2.2]octan-1-yl)methyl)-3-(difluoromethyl)-N-(3-(4-(difluoromethyl)oxazol-2-yl)phenyl)cyclobutane-1-carboxamide] here?
**A.** 0.851 µM

**Q.** `CC1(c2nc(C34CCC(CN(C(=O)C56CC(F)(C5)C6)c5cccc(-c6nc(C7CC7)no6)c5)(CC3)CC4)no2)COC1` [Example 122, N-(3-(3-cyclopropyl-1,2,4-oxadiazol-5-yl)phenyl)-3-fluoro-N-((4-(5-(3-methyloxetan-3-yl)-1,2,4-oxadiazol-3-yl)bicyclo[2.2.2]octan-1-yl)methyl)bicyclo[1.1.1]pentane-1-carboxamide] was tested. Which EC50 did it give?
**A.** 0.028 µM

**Q.** With `CC(N(C(=O)C12CC(F)(C1)C2)c1cccc(-c2nc(C3CC3)no2)c1)C12CCC(c3nc(C4CC4)no3)(CC1)CC2` (single isomer, unassigned) [Example 218, N-(1-(4-(3-cyclopropyl-1,2,4-oxadiazol-5-yl)bicyclo[2.2.2]octan-1-yl)ethyl)-N-(3-(3-cyclopropyl-1,2,4-oxadiazol-5-yl)phenyl)-3-fluorobicyclo[1.1.1]pentane-1-carboxamide] as the compound, how does the EC50 read?
**A.** 1.12 µM

**Q.** Which EC50 does the source give for `O=C(N(CC12CCC(c3nc(C4CC4)cs3)(CC1)CC2)c1cccc(-c2cnc(C3CC3)o2)c1)C12CC(F)(C1)C2` [Example 97, N-(3-(2-cyclopropyloxazol-5-yl)phenyl)-N-((4-(4-cyclopropylthiazol-2-yl)bicyclo[2.2.2]octan-1-yl)methyl)-3-fluorobicyclo[1.1.1]pentane-1-carboxamide] here?
**A.** 0.07 µM

**Q.** Which EC50 does the source give for `Cn1c(-c2cccc(N(CC34CCC(c5nc(C6CC6)no5)(CC3)CC4)C(=O)C34CC(F)(C3)C4)c2)nnc1C1CC1` [Example 132, N-((4-(3-cyclopropyl-1,2,4-oxadiazol-5-yl)bicyclo[2.2.2]octan-1-yl)methyl)-N-(3-(5-cyclopropyl-4-methyl-4H-1,2,4-triazol-3-yl)phenyl)-3-fluorobicyclo[1.1.1]pentane-1-carboxamide] here?
**A.** 4.41 µM

**Q.** For `O=C(C1CC(F)(F)C1)N(CC12CCC(c3nnc(C4CC4)o3)(CC1)CC2)c1cccc(-c2nc(C3CC3)no2)c1` [Example 138, N-(3-(3-cyclopropyl-1,2,4-oxadiazol-5-yl)phenyl)-N-((4-(5-cyclopropyl-1,3,4-oxadiazol-2-yl)bicyclo[2.2.2]octan-1-yl)methyl)-3,3-difluorocyclobutane-1-carboxamide], which EC50 is on record?
**A.** 0.158 µM

**Q.** With `CCOC(=O)c1nc(-c2cccc(N(CC34CCC(c5nc(C6CC6)no5)(CC3)CC4)C(=O)C34CC(F)(C3)C4)c2)cs1` [Example 29, Ethyl 4-(3-(N-((4-(3-cyclopropyl-1,2,4-oxadiazol-5-yl)bicyclo[2.2.2]octan-1-yl)methyl)-3-fluorobicyclo[1.1.1]pentane-1-carboxamido)phenyl)thiazole-2-carboxylate] as the compound, how does the EC50 read?
**A.** 1.09 µM

**Q.** For `O=C([C@H]1C[C@](O)(C(F)(F)F)C1)N(CC12CCC(c3nc(C4CC4)no3)(CC1)CC2)c1cccc(-c2nc(C3CC3)no2)c1` [Example 9, (1s, 3s)-N-((4-(3-cyclopropyl-1,2,4-oxadiazol-5-yl)bicyclo[2.2.2]octan-1-yl)methyl)-N-(3-(3-cyclopropyl-1,2,4-oxadiazol-5-yl)phenyl)-3-hydroxy-3-(trifluoromethyl)cyclobutane-1-carboxamide], which EC50 is on record?
**A.** 0.153 µM

**Q.** For `CC(C)(O)c1coc(-c2cccc(N(CC34CCC(c5nc(C6CC6)no5)(CC3)CC4)C(=O)C3CCC(F)(F)C3)c2)n1` (centres unmarked) [Example 18, N-((4-(3-cyclopropyl-1,2,4-oxadiazol-5-yl)bicyclo[2.2.2]octan-1-yl)methyl)-3,3-difluoro-N-(3-(4-(2-hydroxypropan-2-yl)oxazol-2-yl)phenyl)cyclopentane-1-carboxamide], which EC50 is on record?
**A.** 0.154 µM

**Q.** With `COCc1coc(-c2cccc(N(CC34CCC(c5nc(C6CC6)no5)(CC3)CC4)C(=O)C3CC(F)(F)C3)c2)n1` [Example 84, N-((4-(3-cyclopropyl-1,2,4-oxadiazol-5-yl)bicyclo[2.2.2]octan-1-yl)methyl)-3,3-difluoro-N-(3-(4-(methoxymethyl)oxazol-2-yl)phenyl)cyclobutane-1-carboxamide] as the compound, how does the EC50 read?
**A.** 0.948 µM

**Q.** Which EC50 does the source give for `CC(C)(C)c1noc(C23CCC(CN(C(=O)C45CC(F)(C4)C5)c4cncc(-c5nc(C6CC6)no5)c4)(CC2)CC3)n1` [Example 207, N-((4-(3-(tert-butyl)-1,2,4-oxadiazol-5-yl)bicyclo[2.2.2]octan-1-yl)methyl)-N-(5-(3-cyclopropyl-1,2,4-oxadiazol-5-yl)pyridin-3-yl)-3-fluorobicyclo[1.1.1]pentane-1-carboxamide] here?
**A.** 0.571 µM

**Q.** `Cn1nc(C23CCC(CN(C(=O)C45CC(F)(C4)C5)c4cccc(-c5noc(C6CC6)n5)c4)(CC2)CC3)cc1C1CC1` [Example 170, N-(3-(5-cyclopropyl-1,2,4-oxadiazol-3-yl)phenyl)-N-((4-(5-cyclopropyl-1-methyl-1H-pyrazol-3-yl)bicyclo[2.2.2]octan-1-yl)methyl)-3-fluorobicyclo[1.1.1]pentane-1-carboxamide] was tested. Which EC50 did it give?
**A.** 0.074 µM
